“And” between values parts separate entries of the source, which are not always exact repeats. Identical values can stand only once. The source made the active and inactive calls.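 The calls were made as follows: active = IC50 of 35 µM or lower, which flags the compound as cytotoxic and nonspecific; inactive = the rest.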

Consider 54 compounds from PubChem BioAssay AID651842 (Sanford-Burnham Center for Chemical Genomics, 2012).

The subject of this test is Sufu-KO-LIGHT cells viability, ATP-Lite luminescence. In words: cytotoxicity in Sufu-KO-LIGHT cells, SAR follow-up, cytotoxicity control for Gli-SUFU antagonist project, cell-based, ATP luminescence, set 1 (AID 651842).

By IC50 is commonly meant the midpoint of a concentration-inhibition curve. For the compound `CN1CCN(c2cc(NC(=O)c3ccccc3)ncn2)CC1`, the IC50 is > 35 µM (inactive).

Take `O=C(Nc1cc(N2CCCCC2)ncn1)c1cccs1`: the IC50 is > 35 µM (inactive).

For the compound `CN(C)c1cc(NC(=O)c2ccccc2F)ncn1`, the IC50 was > 35 µM (inactive).

Take `CC1CCN(c2cc(NC(=O)c3ccccc3)ncn2)CC1`: the IC50 was > 35 µM (inactive).

In the case of `O=C(Nc1cc(N2CCCC2)ncn1)c1cccc(F)c1`, the IC50 is > 35 µM (inactive).

Take `CCN(CC)c1cc(NC(=O)c2cccc(C#N)c2)ncn1`: the IC50 is > 35 µM (inactive).

For the compound `CC(C)Nc1cc(NC(=O)c2ccccc2)ncn1`, the IC50 was > 35 µM (inactive).

On to `O=C(Nc1cc(N2CCCCC2)ncn1)c1ccccc1`, for which the IC50 was > 35 µM (inactive).

Regarding `COc1cc(OC)cc(C(=O)Nc2cc(N3CCCCC3)ncn2)c1`, the IC50 is 4.69 µM.

Consider `CCN(CC)c1cc(NC(=O)c2ccccc2)ncn1`, for which the IC50 was > 35 µM (inactive).

For `COc1cc(OC)cc(C(=O)Nc2cc(N(C)C)ncn2)c1`, the IC50 was > 35 µM (inactive).

As to `COc1cc(OC)cc(C(=O)Nc2cc(Nc3cccc(Cl)c3)ncn2)c1`, the IC50 was > 35 µM (inactive).

Consider `CCN(CC)c1cc(NC(=O)c2ccccc2F)ncn1`, for which the IC50 is > 35 µM (inactive).

Regarding `O=C(Nc1cc(N2CCCCC2)ncn1)c1ccc2ccccc2c1`, the IC50 is 2.57 µM.

Regarding `CC(C)CNc1cc(NC(=O)c2ccccc2)ncn1`, the IC50 was > 35 µM (inactive).

`CN(C)c1cc(NC(=O)c2cccc(F)c2)ncn1`: the IC50 is > 35 µM (inactive).

As for `O=C(Nc1cc(N2CCCC2)ncn1)c1ccccc1`, the IC50 is > 35 µM (inactive).

For the compound `N#Cc1ccc(C(=O)Nc2cc(N3CCCCC3)ncn2)cc1`, the IC50 was > 35 µM (inactive).

For `O=C(Nc1cc(N2CCCCC2)ncn1)c1ccccc1Cl`, the IC50 is > 35 µM (inactive).

For the compound `CC(C)(C)Nc1cc(NC(=O)c2ccccc2)ncn1`, the IC50 was > 35 µM (inactive).

Consider `CCC(C)Nc1cc(NC(=O)c2ccccc2)ncn1` (centres undefined), for which the IC50 was > 35 µM (inactive).

As for `Cc1ccc(C(=O)Nc2cc(N3CCCCC3)ncn2)cc1`, the half-maximal inhibitory concentration (IC50) is 3.45 µM.

As to `O=C(Nc1cc(N2CCCC2)ncn1)c1ccccc1F`, the IC50 was > 35 µM (inactive).

Take `O=C(Nc1cc(N2CCCCC2)ncn1)c1ccc(Br)o1`: the IC50 is > 35 µM (inactive).

Turning to `COc1ccccc1C(=O)Nc1cc(N2CCCCC2)ncn1`, the IC50 is > 35 µM (inactive).

On to `CCCCNc1cc(NC(=O)c2ccccc2)ncn1`, for which the IC50 is > 35 µM (inactive).

Consider `O=C(Nc1cc(NCC2CCCO2)ncn1)c1ccccc1` (centres undefined), for which the IC50 is > 35 µM (inactive).

Regarding `CC1CCCCN1c1cc(NC(=O)c2ccccc2)ncn1` (centres undefined), the IC50 was > 35 µM (inactive).

Turning to `COc1cc(OC)cc(C(=O)Nc2cc(N3CCCC3)ncn2)c1`, the IC50 was > 35 µM (inactive).

For `O=C(Nc1cc(N2CCCCC2)ncn1)c1ccsc1`, the IC50 was > 35 µM (inactive).

With `O=C(Nc1cc(N2CCCCC2)ncn1)c1cc2ccccc2s1`, the IC50 was 6.97 µM.

Consider `CCN(CC)c1cc(NC(=O)c2ccccc2)nc(C)n1`, for which the IC50 is > 35 µM (inactive).

`CN(C)c1cc(NC(=O)c2cccc(C#N)c2)ncn1`: the IC50 is > 35 µM (inactive).

As to `CCN(CC)c1cc(NC(=O)c2ccc(Br)o2)ncn1`, the IC50 was > 35 µM (inactive).

As for `CCN(CC)c1cc(NC(=O)c2cccc(F)c2)ncn1`, the IC50 was > 35 µM (inactive).

As to `N#Cc1cccc(C(=O)Nc2cc(N3CCCCC3)ncn2)c1`, the IC50 is > 35 µM (inactive).

As for `CN(C)c1cc(NC(=O)c2ccccc2)ncn1`, the IC50 was > 35 µM (inactive).

For the compound `O=C(Nc1cc(N2CCCCCC2)ncn1)c1ccccc1`, the IC50 was > 35 µM (inactive).

In the case of `CCCCN(C)c1cc(NC(=O)c2ccccc2)ncn1`, the concentration for half-maximal inhibition (IC50) is 2.89 µM.

`O=C(Nc1cc(N2CCNCC2)ncn1)c1ccccc1`: the IC50 is > 35 µM (inactive).

With `CC(C)(C)OC(=O)N1CCN(c2cc(NC(=O)c3ccccc3)ncn2)CC1`, the half-maximal inhibitory concentration (IC50) is 0.24 µM.

For `CC(C)CNc1cc(NC(=O)c2cccc(F)c2)ncn1`, the IC50 was > 35 µM (inactive).

For `O=C(Nc1cc(N2CCCCC2)ncn1)c1ccc(Cl)cc1`, the IC50 was 1.42 µM and 0.588 µM.

`O=C(Nc1cc(N2CCCCC2)ncn1)c1ccccc1F`: the IC50 was > 35 µM (inactive).

On to `O=C(Nc1cc(N2CCOCC2)ncn1)c1ccccc1`, for which the IC50 is > 35 µM (inactive).

With `CCN(CC)c1cc(NC(=O)c2cc(OC)cc(OC)c2)ncn1`, the IC50 was > 35 µM (inactive).

Regarding `Cc1nc(NC(=O)c2ccccc2)cc(N2CCCCC2)n1`, the IC50 was > 35 µM (inactive).

With `O=C(Nc1cc(N2CCCCC2)ncn1)c1cccc(F)c1`, the IC50 is > 35 µM (inactive).

On to `COc1cccc(C(=O)Nc2cc(N3CCCCC3)ncn2)c1`, for which the half-inhibitory concentration (IC50) is 2.28 µM.

Take `O=C(Nc1cc(N2CCCCC2)ncn1)c1cccc2ccccc12`: the IC50 is > 35 µM (inactive).

On to `O=C(Nc1cc(N2CCSCC2)ncn1)c1ccccc1`, for which the IC50 is > 35 µM (inactive).

For the compound `Cc1nc(NC(=O)c2ccccc2)cc(N(C)C)n1`, the IC50 is > 35 µM (inactive).

Consider `Cc1nc(NC(=O)c2ccccc2)cc(N2CCCC2)n1`, for which the IC50 was > 35 µM (inactive).

Consider `O=C(Nc1cc(N2CCCCC2)ncn1)c1ccco1`, for which the IC50 was > 35 µM (inactive).
